Source: ChEMBL document CHEMBL1153565, “Physicochemical properties and membrane interactions of anti-apoptotic derivatives 2-(4-fluorophenyl)-3-(pyridin-4-yl)imidazo[1,2-a]pyridine depending on the hydroxyalkylamino side chain length and conformation: an NMR and ESR study” (Eur J Med Chem, 2009)

How the values were obtained:
[1] = Solubility of compound in water; assay type: physicochemical; details: buffer
[2] = Partition coefficient, log P of the compound; assay type: physicochemical; details: octanol/water
THP-1 = assay: Membrane penetration of compound in human THP1 cells assessed as membrane binding; assay type: ADME, cell-based

Row | solubility [1] | logP [2] | Activity (THP-1) | Structure (SMILES)
1 | Insoluble | 2.3 | Not Active | OCCCCNc1ccc2nc(-c3ccc(F)cc3)c(-c3ccncc3)n2c1
2 | Insoluble | 1.75 | Not Active | OCCNc1ccc2nc(-c3ccc(F)cc3)c(-c3ccncc3)n2c1
3 | Soluble | 3.2 | Active | OCCCCCCNc1ccc2nc(-c3ccc(F)cc3)c(-c3ccncc3)n2c1
